Data as given in paper PMC6017461, “Multi-Target Anti-Alzheimer Activities of Four Prenylated Compounds from Psoralea Fructus” (Molecules : A Journal of Synthetic Chemistry and Natural …, 2018).

Target: T1, amyloid β-peptide 42 (Aβ42) (Homo sapiens, UniProt P05067)
T1 construct: gene APP; synthetic human Aβ42
Experiment: Thioflavin T fluorescence aggregation assay with synthetic Aβ[…], positive control
Assay type: biochemical

T1 sequence (P05067 672-713 limits assumed): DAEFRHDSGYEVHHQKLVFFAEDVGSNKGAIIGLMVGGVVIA

COc1cc(/C=C/C(=O)CC(=O)/C=C/c2ccc(O)c(OC)c2)ccc1O [curcumin]
Thioflavin T fluorescence aggregation assay with synthetic Aβ42, positive contro: which were comparable to the positive control curcumin
